The values below come from article PMC7403827 (Clinical and Translational Medicine, 2020).

Like-named read-outs stand apart in the source and are kept apart here.

For data set [1] the following is noted: cited from earlier work.
Data set [2] can be described thus: Pharmacokinetic analyses: apatinib and gefitinib plasma concentrations (LC–MS/MS, non‐compartmental). Conditions: for half-life: T1/2, gefitinib 250 mg + apatinib 500 or 250 mg. From the text:
In the two cohorts, PK assessment consisted of a single‐dose‐administration on Cycle 1, Day 1's (C1, D1) test and a continuous‐dose‐administration on Cycle 1, Day 15′s (C1, D15) test. For detailed blood collection administration, see the supplementary materials. […] PK parameters, including maximum plasma concentration (C max), area under the plasma concentration‐time curve (AUC), time to reach maximum plasma concentration (T max), elimination half‐life (T 1/2), steady state concentration (Css), area under the plasma concentration‐time curve for steady state (AUCss), steady state volume of distribution (Vdss), and steady state clearance rate (CLss) were calculated using non‐compartmental methods with Winnonlin 7 software. The AUC was estimated by using the linear trapezoidal rule method and T 1/2 was determined by linear regression of the terminal slope of the logarithmic plasma concentration‐time profile. Descriptive statistics were measured for the PK parameters using mean with its corresponding standard deviation (SD).
In the two cohorts, PK assessment consisted of a single-dose-administration (C1D1) test and a continuous-dose-administration (C1D15) test. Serial peripheral blood samples were collected at pre-dose and 1, 2, 3, 4, 5, 6, 8, 12 and 24 post-dose for the single dose PK test. For the continuous PK test, serial peripheral blood samples were collected at pre-dose and at 0.5, 1, 2, 3, 4, 5, 6, 8, 12, and 24 hours post-dose on […]. Samples were centrifuged, and plasma frozen at −80°C refrigerator until further analysis.
Descriptive statistics (mean and standard deviation) were estimated for PK parameters. Median values and ranges were provided for time to reach maximum plasma concentration.

The conditions of data set [3]: Gefitinib 225mg, Japanese patients, ref [3] Nakagawa K et al., Annals of Oncology 2003, cited from earlier work.
A further data set relates to EGFR‐mutant NSCLC. Particulars: cited from earlier work.

Turning to `COc1cc2ncnc(Nc3ccc(F)c(Cl)c3)c2cc1OCCCN1CCOCC1` [Gefitinib], the MTD in data set [1] is given as 750 mg/day. The Cmaxmulti is recorded as 469 (134) ng/ml in data set [2] (Table S6, Gefitinib 250mg + apatinib, this study, geometric mean, SD) and 341 (61) ng/ml in data set [3]. Further, the Tmax in data set [2] (gefitinib 250 mg + apatinib 500 or 250 mg, Day 15 (n = 11), Median (range)) was 4 (3‐6) h; in data set [2] (human, plasma, oral, Tmax, Table S6, Gefitinib 250mg + apatinib, this study, geometric mean, SD), 3.9 h; in data set [2] (human, plasma, oral, Tmax, gefitinib 250 mg + apatinib 500 or 250 mg, Day 1 (n = 11), Median (range)) it was 3 h; in data set [2] (human, plasma, oral, Tmax, gefitinib 250 mg + apatinib 500 or 250 mg, Day 15 (n = 11), Median (range)), 3 h; in data set [3] it was 5 (3-7) h. Besides, the AUC(0-t) in data set [2] (human, plasma, oral, AUC0-24, Table S6, Gefitinib 250mg + apatinib, this study, geometric mean, SD) came to 3330 ng·h/mL. The AUC was found to be 8130 ng·h/mL in data set [2] (human, plasma, oral, AUC0-24multi, Table S6, Gefitinib 250mg + apatinib, this study, multiple-dosage regimen, geometric mean, SD); 3440 ng·h/mL in data set [2] (human, plasma, oral, AUC0‐24, gefitinib 250 mg + apatinib 500 or 250 mg, Day 1 (n = 11), Table 2: Geometric Mean (%CV)); 7980 ng·h/mL in data set [2] (human, plasma, oral, AUC0‐24, gefitinib 250 mg + apatinib 500 or 250 mg, Day 15 (n = 11), Table 2: Geometric Mean (%CV)); 6400 ng·h/mL in data set [2] (human, plasma, oral, AUC0‐∞, gefitinib 250 mg + apatinib 500 or 250 mg, Day 1 (n = 11), Geometric Mean (%CV)); 18100 ng·h/mL in data set [2] (human, plasma, oral, AUC0‐∞, gefitinib 250 mg + apatinib 500 or 250 mg, Day 15 (n = 11), Geometric Mean (%CV)); 7220 ± 1730 ng·h/mL in data set [2] (human, plasma, oral, AUCss, steady state, Gefitinib 250mg + apatinib, Mean±SD). In addition, the clearance in data set [2] (human, plasma, oral, CL, gefitinib 250 mg + apatinib 500 or 250 mg, Day 1 (n = 11), Mean (SD)) is 683 mL/min; in data set [2] (human, plasma, oral, CL, gefitinib 250 mg + apatinib 500 or 250 mg, Day 15 (n = 11), Mean (SD)), 533 mL/min; in data set [2] (human, plasma, oral, CLss, steady state, Gefitinib 250mg + apatinib, Mean±SD), 617 mL/min. In addition, the Cmax in data set [2] (human, plasma, oral, Table S6, Gefitinib 250mg + apatinib, this study, geometric mean, SD) was 488 ± 28 ng/mL; in data set [2] (human, plasma, oral, gefitinib 250 mg + apatinib 500 or 250 mg, Day 1 (n = 11), Table 2: Geometric Mean (%CV)) it was 272 ng/mL; in data set [2] (human, plasma, oral, gefitinib 250 mg + apatinib 500 or 250 mg, Day 15 (n = 11), Table 2: Geometric Mean (%CV)), 465 ng/mL; in data set [3], 150 (92) ng/ml. In addition, the half-life is 21 h in data set [2] (human, plasma, oral, Day 1 (n = 11), Mean (SD)) and 30 h in data set [2] (human, plasma, oral, Day 15 (n = 11), Mean (SD)). Also, the Vd in data set [2] (human, plasma, oral, Vd, gefitinib 250 mg + apatinib 500 or 250 mg, Day 1 (n = 11), Mean (SD)) turned out to be 1100 L; in data set [2] (human, plasma, oral, Vd, gefitinib 250 mg + apatinib 500 or 250 mg, Day 15 (n = 11), Mean (SD)) it was 1330 L; in data set [2] (human, plasma, oral, Vdss, steady state, Gefitinib 250mg + apatinib, Mean±SD) it was 880 ± 234 L. Moreover, the AUC0-24multi in data set [3] (multiple-dosage regimen) was 5191 (61) ng·h/ml. For the same molecule, the AUC0-24 in data set [3] was 1986 (58) ng·h/ml.
For `C=CC(=O)Nc1cc(Nc2nccc(-c3cn(C)c4ccccc34)n2)c(OC)cc1N(C)CCN(C)C` [Osimertinib], the mPFS in the data set on EGFR‐mutant NSCLC (AURA3 study) was 10.1 months.
In the case of `C#Cc1cccc(Nc2ncnc3cc(OCCOC)c(OCCOC)cc23)c1` [erlotinib], the mPFS with EGFR‐mutant NSCLC (ARTEMIS (CTONG 1509) study) is on record as 11.3 months. For the same molecule, the PFS is reported as 9.7 months in the data set with EGFR‐mutant NSCLC (JO25567 study) and 12.4 months in the data set with EGFR‐mutant NSCLC (RELAY study).

Usually AUC(0-t) stands for the area under the concentration-time curve up to a stated or last time point. One may read the AUC as the area under the concentration-time curve, a measure of exposure. In general, half-life refers to how long it takes for the measured level to halve.
